Values joined by “and” are separate entries in the source; they are usually repeats but may differ in a detail not shown here. Equal entries are not always repeated. Where two headings read alike, the source gives them in different places.
Key:
[1] = Plasma pharmacokinetics of LOX, cis-LOX and trans-LOX after oral LOX in mice pretreated with DEX, KTC or vehicle; assay type: in vivo, Male ICR mice; settings: for AUC(0-inf) / AUC(0-t) / Cmax / half-life / Tmax: male, ICR, mouse, plasma, po, 20 mg/kg, mouse plasma, LOX 20 mg/kg oral, mean ± SE, n = 3; for Cmax: read-out: Cmax; for half-life: read-out: T1/2 (elimination half-life); for Tmax: read-out: Tmax (converted)
Method: The acclimatized animals were divided into eight groups, with each group containing 3 mice: groups I and II, vehicle (corn oil); groups III and IV, DEX-treated; groups V and VI, vehicle (10% Ethanol); and groups VII and VIII, KTC-treated group. […] Then, animals were fasted for 12 hours with free access to water before starting the experiment. […]
After the oral administration of LOX, blood from groups I, III, V, and VII was collected from the tail at 0, 5, 10, 15, 30, 60, 120, and 240 min post-administration and placed into sodium heparin-containing tubes. After the last blood collection, the mice were sacrificed by cervical dislocation. Plasma was then prepared by centrifuging the blood at 4000× g for 15 min at 4 °C and stored at −80 °C until analysis. For analysis, each sample was prepared by mixing plasma (10 µL) and 90 µL of ACN containing 0.1% formic acid and 5 µM of tolbutamide as an internal standard (IS). […] Finally, 10 µL of sample supernatant was injected into the LC-MS/MS system. The PK parameters (the maximum plasma concentration [Cmax], time to reach the maximum plasma concentration [Tmax], elimination half-life [T1/2], and area under the plasma concentrations [AUC]) were analyzed by WinNonlin software (Version 2.1, Scientific Consulting, Louisville, KY, USA).
A Shimadzu Prominence UFLC system (Kyoto, Japan) connected to a TSQ vantage triple quadrupole mass spectrometer with a HESI-II spray source incorporated with a DGU-20A5 degasser, an LC-20AD pump, a SIL-20A autosampler, and a CTO-20A column oven was used for the analyses. A shim-pack GIS C18 column (150 × 3.0 mm, […]) was used to separate analytes in the samples. Mobile phases A and B were composed of water with formic acid and ACN with 0.1% formic acid, respectively, and the flow rate was 0.50 mL/min at 40 °C. The gradient conditions were as follows: 20% of B between 0 and 0.25 min, 20–80% of B between 0.25 and 9.75 min, 80–20% of B between 9.75 and 10 min, and 20% of B between 10 and 13 min. The MS was operated under the following conditions: electrospray ionization in negative mode at 3.0 kV, capillary temperature at 350 °C, vaporizer temperature at 300 °C, sheath gas pressure at 35 Arb, and auxiliary gas pressure at 10 Arb. Finally, Xcalibur software (Thermo Fisher Scientific Inc., Waltham, MA, USA) was used for data analysis.

[2] = Relative concentration of LOX and its metabolites in hepatic portal vein plasma 10 min post-LOX (HRMS); assay type: in vivo, Male ICR mice; settings: hepatic portal vein plasma 10 min after LOX 20 mg/kg oral, n = 3; for Relative concentration in plasma (DEX average % of area, VH corn oil = 100): DEX 40 mg/kg i.p. 3 days; for Relative concentration in plasma (KTC average % of area, VH 10% ethanol = 100): KTC 60 mg/kg i.p. single dose
Method: The acclimatized animals were divided into eight groups, with each group containing 3 mice: groups I and II, vehicle (corn oil); groups III and IV, DEX-treated; groups V and VI, vehicle (10% Ethanol); and groups VII and VIII, KTC-treated group. […] Then, animals were fasted for 12 hours with free access to water before starting the experiment. After fasting, LOX (20 mg/kg) was administered orally to […].
Similarly, blood from groups II, IV, VI, and VIII was collected from the hepatic portal vein 10 min post-LOX administration to identify metabolites of LOX and to analyze drug–drug interactions. Plasma from these samples was prepared as explained above. Then, 300 µL of ACN having 0.1% formic acid and 5 µM of the IS were mixed with 100 µL of each plasma sample. […] Supernatants were transferred into tubes and dried using a Labconco Speed Vac (Labconco Corporation, Kansas City, MO, USA). […] Each supernatant was transferred into an LCMS vial, and 5 µL were injected into a high-resolution mass spectrometer (HRMS).
HRMS coupled with ultrahigh performance liquid chromatography (UHPLC) was used to detect hydroxy-LOX and other metabolites of LOX. The UHPLC system, Dionex Ultimate 3000 (Dionex Softron GmbH, Germering, Germany) consisted of an HPG-3200SD Standard binary pump, a WPS 3000 TRS analytical autosampler, and a TCC-3000 SD column compartment. In this experiment, the HRMS was a Q Exactive Focus quadrupole-Orbitrap MS (Thermo Fisher Scientific, Bremen, Germany) equipped with a heated electrospray ionization (HESI-II) ion probe.
LOX was detected as a deprotonated ion [M-H]^− at m/z 245.1175 in negative ion mode. Therefore, negative ion mode was used with the following optimized conditions for LOX: spray voltage of 2.5 kV, capillary temperature of 320 °C, auxiliary gas at 12 aux unit, aux gas heater temperature of 200 °C, sheath gas at 35 aux units, and S-lens RF level of 50. LOX and its metabolites were separated using a 150 mm × 2.1 mm, 2.6-μm reverse-phase liquid chromatography column, Kinetex® C18 column (Phenomenex, CA, USA) at 40 °C. Furthermore, MS-grade solvents were used as the mobile phase in gradient elution mode: 0.1% aqueous formic acid as Solvent A and 0.1% formic acid in ACN as Solvent B. The flow was set to 0.22 mL/min with a gradient condition of Solvent B as 10% between 0 and 0.5 min, 10–50% between 0.5 and 21.5 min, 50–95% between 21.5 and 22.5 min, 95% between 22.5 and 25.5 min, 95–10% between 25.5 and 25.6 min, and 10% between 25.6 and 30 min.

[3] = tested on: CYP3A; parameters: method as in PMID 17965516; settings: human liver microsomes; cited from earlier work
[4] = pretreated DEX 40 mg/kg i.p. 3 days
[5] = pretreated DEX 40 mg/kg i.p. 3 days, read-out: AUC(0–60) (converted)
[6] = pretreated KTC 60 mg/kg i.p. single dose
[7] = pretreated VH (10% ethanol) i.p. single dose
[8] = pretreated VH (10% ethanol) i.p. single dose, read-out: AUC(0–60) (converted)
[9] = pretreated VH (corn oil) i.p. 3 days
[10] = pretreated VH (corn oil) i.p. 3 days, read-out: AUC(0–60) (converted)

CC(C(=O)O)c1ccc(CC2CCCC2=O)cc1 (centres unmarked) [LOX, 2-(4-((2-Oxocyclopentyl)methyl)phenyl)propanoic acid, reference compound]
Detection in plasma at later time points ([1]; blood collected for up to 240 min after LOX 20 mg/kg oral): not detected after 60 min | AUC(0-inf) [1, 4]: 937 ng·h/mL | AUC(0-t) [1, 5]: 892 ng·h/mL | Cmax [1, 4]: 2500 ± 200 ng/mL | half-life [1, 4]: 12 ± 0.7 min | Tmax [1, 4]: 5 min | AUC(0-inf) [1, 6]: 1150 ng·h/mL | AUC(0-t) [1, 6]: 1110 ng·h/mL | Cmax [1, 6]: 3500 ± 500 ng/mL | half-life [1, 6]: 12.2 ± 0.9 min | Tmax [1, 6]: 5 min | AUC(0-inf) [1, 7]: 985 ng·h/mL | AUC(0-t) [1, 8]: 912 ng·h/mL | Cmax [1, 7]: 2700 ± 300 ng/mL | half-life [1, 7]: 14.6 ± 1.1 min | Tmax [1, 7]: 5 min | AUC(0-inf) [1, 9]: 1700 ng·h/mL | AUC(0-t) [1, 10]: 1600 ng·h/mL | Cmax [1, 9]: 4800 ± 900 ng/mL | half-life [1, 9]: 14.9 ± 0.6 min | Tmax [1, 9]: 5 min | Relative concentration in plasma (DEX average % of area, VH corn oil = 100) [2]: 74.1% and 74.1 ± 6.3% | Relative concentration in plasma (KTC average % of area, VH 10% ethanol = 100) [2]: 178.2% and 178.2 ± 8.3% | Effect on the metabolism of tacrolimus [3]: slightly inhibited

C[C@H](C(=O)O)c1ccc(C[C@H]2CCC[C@@H]2O)cc1 [trans-LOX, (2S)-2-[4-[[(1R,2S)-2-hydroxycyclopentyl]methyl]phenyl]propanoic acid]
AUC(0-inf) [1, 4]: 1430 ng·h/mL | AUC(0-t) [1, 5]: 1130 ng·h/mL | Cmax [1, 4]: 2100 ± 200 ng/mL | half-life [1, 4]: 26.4 ± 1.6 min | Tmax [1, 4]: 10.4 min | AUC(0-inf) [1, 6]: 1580 ng·h/mL | AUC(0-t) [1, 6]: 1340 ng·h/mL | Cmax [1, 6]: 3100 ± 300 ng/mL | half-life [1, 6]: 19.8 ± 0.7 min | Tmax [1, 6]: 11.7 min | AUC(0-inf) [1, 7]: 1520 ng·h/mL | AUC(0-t) [1, 8]: 1170 ng·h/mL | Cmax [1, 7]: 2100 ± 200 ng/mL | half-life [1, 7]: 26 ± 0.5 min | Tmax [1, 7]: 11.6 min | AUC(0-inf) [1, 9]: 2580 ng·h/mL | AUC(0-t) [1, 10]: 2290 ng·h/mL | Cmax [1, 9]: 4400 ± 500 ng/mL | half-life [1, 9]: 18.2 ± 0.6 min | Tmax [1, 9]: 9.1 min | Relative concentration in plasma (DEX average % of area, VH corn oil = 100) ([2]; listed as M1): 80.07% | Relative concentration in plasma (KTC average % of area, VH 10% ethanol = 100) [2]: 158.9 ± 11.9% | Relative concentration in plasma (KTC average % of area, VH 10% ethanol = 100) ([2]; listed as M1): 158.93%

— PMC6781309, “Assessing Drug Interaction and Pharmacokinetics of Loxoprofen in Mice Treated with CYP3A Modulators” (Pharmaceutics, 2019)
